Reference: patent US9605026B2, “Hydrogen-bond surrogate peptides and peptidomimetics for p53 reactivation” (New York University, priority 2013, dated 2017)

How the values were obtained:
UMSCC74A cells = test: Cell proliferation (MTT) in UMSCC74A cells; assay type: cell-based, human; details: for cell proliferation, single-agent: UMSCC74A (HPV-negative), 10 μM; for effect on efficacy of cis-platinum on proliferation: UMSCC74A, 10 μM with cis-platinum 10 μM
Description: (§1) FIG. 5A is an schematic illustration showing that CH1 has two distinct target sites. HIF1-α/p300 structures were used as guides to design helix mimetics that target site A and site B on the CH1 domain of p300. […] CH1iA (SEQ ID NO: 7) and CH1iB (SEQ ID NO: 8) were designed to mimic two helices from the C-terminal domain of HIF-1α. The peptides were locked into the helical conformation by the hydrogen bond surrogate method. FIG. 5C is a graph of p53 activity. UMSCC47 (left) and UMSCC74A (right) cells were co-transfected with a p53 Firefly luciferase reporter plasmid and a control Renilla luciferase plasmid. After 24 hours, cells were treated with control (vehicle), CH1iA (10 μM), or CH1iB (10 μM) for 24 hours. Firefly luciferase activity was normalized to Renilla luciferase activity to control for transfection efficiency. Data is normalized to control and presented as mean±SEM. *P<0.05, n=3. FIG. 5D is a western blot showing total and acetylated p53 levels. UMSCC47 (left) and UMSCC74A (right) cells were treated with control (vehicle), CH1iA (10 μM), or CH1iB (10 μM) for 24 hours. Cell lysates were immunoblotted with anti-p53 or anti-acetylated[K382]-p53 antibody. FIG. 5E is a pair of graphs of p300, p53, p21, miR-34a, and miR-200c expression. UMSCC47 (top panel) and UMSCC74A (bottom panel) cells were treated with control (vehicle), CH1iA (10 μM), or CH1iB (10 μM) for 24 hours. mRNA expression was determined using qPCR with validated TaqMan assays. Data is normalized to control cells and presented as mean±SEM. *P<0.01, control vs. CH1iB, n=3. FIG. 5F is a western blot showing HPV16 E6-p300 association. UMSCC47 cells were treated with control (vehicle), CH1iA (10 μM), or CH1iB (10 μM) for 24 hours. Cell lysates were extracted, immunoprecipitated with anti-p300 antibody, and immunoblotted with anti-E6 antibody. Cell lysates were immunoblotted with anti-E6 or anti-p300 antibody for input control. FIG. 5G is a set of graphs of cell proliferation. UMSCC47 (top left panel), UMSCC74A (top right panel), and IMR90 (human normal fibroblasts) (bottom panel) cells were treated with control (vehicle), CH1iA (10 μM), CH1iB (10 μM), cis-platinum (10 μM), CH1iA (10 μM) and cis-platinum (10 μM), or CH1iB (10 μM) and cis-platinum (10 μM) for 24, 48, or 72 hours. […]
(§2) Cell proliferation was assessed using the MTT reagent (Roche Molecular Biochemicals, Nutley, N.J.) to detect metabolic active cells. Absorbance was measured at 570 nm in the Spectra Max 190 ELISA reader (Molecular Devices, Sunnyvale, Calif.) after overnight incubation. […] Apoptotic cells were analyzed using BD FACS Calibur (BD Biosciences Corporation, Franklin Lakes, N.J.) at The Ohio State University Comprehensive Cancer Center Analytical Cytometry Core.

p53 = test: Western blot of total and acetylated[K382] p53 in UMSCC74A cells; assay type: cell-based, human; details: UMSCC74A (HPV-negative, p53 wildtype), 10 μM, 24 hours
Description: FIG. 5A is an schematic illustration showing that CH1 has two distinct target sites. HIF1-α/p300 structures were used as guides to design helix mimetics that target site A and site B on the CH1 domain of p300. […] CH1iA (SEQ ID NO: 7) and CH1iB (SEQ ID NO: 8) were designed to mimic two helices from the C-terminal domain of HIF-1α. The peptides were locked into the helical conformation by the hydrogen bond surrogate method. FIG. 5C is a graph of p53 activity. UMSCC47 (left) and UMSCC74A (right) cells were co-transfected with a p53 Firefly luciferase reporter plasmid and a control Renilla luciferase plasmid. After 24 hours, cells were treated with control (vehicle), CH1iA (10 μM), or CH1iB (10 μM) for 24 hours. Firefly luciferase activity was normalized to Renilla luciferase activity to control for transfection efficiency. Data is normalized to control and presented as mean±SEM. *P<0.05, n=3. FIG. 5D is a western blot showing total and acetylated p53 levels. UMSCC47 (left) and UMSCC74A (right) cells were treated with control (vehicle), CH1iA (10 μM), or CH1iB (10 μM) for 24 hours. Cell lysates were immunoblotted with anti-p53 or anti-acetylated[K382]-p53 antibody. […] UMSCC47 (top panel) and UMSCC74A (bottom panel) cells were treated with control (vehicle), CH1iA (10 μM), or CH1iB (10 μM) for 24 hours. mRNA expression was determined using qPCR with validated TaqMan assays. […]

UMSCC47 cells = test: Clonogenic survival of UMSCC47 cells; assay type: cell-based, human; details: UMSCC47, 10 μM at day 0, colonies at 14 days, vs vehicle
[1] = tested on: human normal IMR90 fibroblasts; test: Cell proliferation (MTT) in IMR90 fibroblasts; assay type: cell-based; details: for effect on efficacy of cis-platinum on proliferation: IMR90, 10 μM with cis-platinum 10 μM; for cell proliferation, single-agent: IMR90 human normal fibroblasts, 10 μM
Description: as §1, §2

| Substance | cell proliferation, single-agent (UMSCC74A cells) | effect on efficacy of cis-platinum on proliferation (UMSCC74A cells) | p53 levels (p53) | reduction (inhibition) of clonogenic survival (UMSCC47 cells) | effect on efficacy of cis-platinum on proliferation [1] | cell proliferation, single-agent [1] |
| --- | --- | --- | --- | --- | --- | --- |
| XELA*RALDQ-NH2 (ELXRALDQ; HBS: 4-pentenoic acid, N-allylalanine; C-terminal amide; CH1iB) [X 4-pentenoic acid, A* N-allylalanine] | no effect | did not augment | did not modulate | 35% | did not augment | no effect |
| XTAA*DCEYNAR (TAXDCEYNAR; HBS: 4-pentenoic acid, N-allylalanine; CH1iA) [X 4-pentenoic acid, A* N-allylalanine, reference compound] | no effect | did not augment | did not modulate | – | did not augment | no effect |
